Several values for one entry are separate records, joined by “and”; a condition that tells them apart may be missing. Equal entries are not always repeated.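 96-well plates; 48 h exposure; 5 concentrations. Endpoints by linear interpolation between flanking doses. Not reached: highest tested concentration assigned. GI50 is the concentration that inhibits growth by half. TGI: concentration producing complete growth inhibition.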
Key:
Assay in all cases: NCI tumour cell line growth inhibition, 48 h
A498 renal = tested on: A498 renal
CCRF-CEM leukemia = tested on: CCRF-CEM leukemia
COLO 205 colon = tested on: COLO 205 colon
DLD-1 colon = tested on: DLD-1 colon
DMS 114 small cell lung = tested on: DMS 114 small cell lung
DMS 273 small cell lung = tested on: DMS 273 small cell lung
EKVX NSCLC = tested on: EKVX NSCLC
HCT-116 colon = tested on: HCT-116 colon
HCT-15 colon = tested on: HCT-15 colon
HOP-18 NSCLC = tested on: HOP-18 NSCLC
HOP-92 NSCLC = tested on: HOP-92 NSCLC
HT29 colon = tested on: HT29 colon
IGROV1 ovarian = tested on: IGROV1 ovarian
K-562 leukemia = tested on: K-562 leukemia
KM12 colon = tested on: KM12 colon
KM20L2 colon = tested on: KM20L2 colon
LOX IMVI melanoma = tested on: LOX IMVI melanoma
M19-MEL melanoma = tested on: M19-MEL melanoma
MALME-3M melanoma = tested on: MALME-3M melanoma
MCF7 breast = tested on: MCF7 breast
NCI-H23 lung = tested on: NCI-H23 lung
NCI-H522 lung = tested on: NCI-H522 lung
NCI/ADR-RES ovarian = tested on: NCI/ADR-RES ovarian
OVCAR-3 ovarian = tested on: OVCAR-3 ovarian
OVCAR-4 ovarian = tested on: OVCAR-4 ovarian
OVCAR-5 ovarian = tested on: OVCAR-5 ovarian
OVCAR-8 ovarian = tested on: OVCAR-8 ovarian
P388 leukemia = tested on: P388 leukemia
P388/ADR leukemia = tested on: P388/ADR leukemia
RPMI-8226 leukemia = tested on: RPMI-8226 leukemia
RXF 393 renal = tested on: RXF 393 renal
SF-268 CNS = tested on: SF-268 CNS
SK-MEL-2 melanoma = tested on: SK-MEL-2 melanoma
SK-MEL-28 melanoma = tested on: SK-MEL-28 melanoma
SK-MEL-5 melanoma = tested on: SK-MEL-5 melanoma
SK-OV-3 ovarian = tested on: SK-OV-3 ovarian
SN12C renal = tested on: SN12C renal
SN12K1 renal = tested on: SN12K1 renal
SNB-19 CNS = tested on: SNB-19 CNS
SW-620 colon = tested on: SW-620 colon
U251 CNS = tested on: U251 CNS
UACC-257 melanoma = tested on: UACC-257 melanoma
UACC-62 melanoma = tested on: UACC-62 melanoma
UO-31 renal = tested on: UO-31 renal
XF 498 CNS = tested on: XF 498 CNS
786-0 renal = tested on: 786-0 renal
A549 NSCLC = tested on: A549 NSCLC
ACHN renal = tested on: ACHN renal
BT-549 breast = tested on: BT-549 breast
CAKI-1 renal = tested on: CAKI-1 renal
DU-145 prostate = tested on: DU-145 prostate
HCC-2998 colon = tested on: HCC-2998 colon
HL-60(TB) leukemia = tested on: HL-60(TB) leukemia
HOP-62 NSCLC = tested on: HOP-62 NSCLC
HS 578T breast = tested on: HS 578T breast
LXFL 529 NSCLC = tested on: LXFL 529 NSCLC
M14 melanoma = tested on: M14 melanoma
MDA-MB-231 breast = tested on: MDA-MB-231 breast
MDA-MB-435 = tested on: MDA-MB-435
MDA-N = tested on: MDA-N
MOLT-4 leukemia = tested on: MOLT-4 leukemia
NCI-H226 lung = tested on: NCI-H226 lung
NCI-H460 lung = tested on: NCI-H460 lung
PC-3 prostate = tested on: PC-3 prostate
RXF-631 renal = tested on: RXF-631 renal
SF-295 CNS = tested on: SF-295 CNS
SF-539 CNS = tested on: SF-539 CNS
SNB-75 CNS = tested on: SNB-75 CNS
SNB-78 CNS = tested on: SNB-78 CNS
SR leukemia = tested on: SR leukemia
T-47D breast = tested on: T-47D breast
TK-10 renal = tested on: TK-10 renal

Q: Which results are given for `COc1ccc(N[C@@H]2c3cc4c(cc3C(c3cc(OC)c(O)c(OC)c3)[C@H]3C(=O)OCC32)OCO4)cc1OC` (stereo partly specified)?
A: TGI (A498 renal): > 100 µM; TGI (CCRF-CEM leukemia): > 39.3 µM; TGI (COLO 205 colon): > 36.3 µM; TGI (DLD-1 colon): > 25.7 µM; TGI (DMS 114 small cell lung): > 21.9 µM; TGI (DMS 273 small cell lung): > 100 µM; TGI (EKVX NSCLC): > 100 µM; TGI (HCT-116 colon): > 42.7 µM; TGI (HCT-15 colon): > 100 µM; TGI (HOP-18 NSCLC): > 64.2 µM; TGI (HOP-92 NSCLC): > 100 µM; TGI (HT29 colon): > 20.7 µM; TGI (IGROV1 ovarian): > 75.7 µM; TGI (K-562 leukemia): > 100 µM; TGI (KM12 colon): > 21.8 µM; TGI (KM20L2 colon): > 100 µM; TGI (LOX IMVI melanoma): > 100 µM; TGI (M19-MEL melanoma): > 100 µM; TGI (MALME-3M melanoma): > 40.7 µM; TGI (MCF7 breast): > 100 µM; TGI (NCI-H23 lung): 1.92 µM; TGI (NCI-H522 lung): > 25.3 µM; TGI (NCI/ADR-RES ovarian): > 100 µM; TGI (OVCAR-3 ovarian): > 28.4 µM; TGI (OVCAR-4 ovarian): > 100 µM; TGI (OVCAR-5 ovarian): > 100 µM; TGI (OVCAR-8 ovarian): > 100 µM; TGI (P388 leukemia): 10.9 µM; TGI (P388/ADR leukemia): 10.3 µM; TGI (RPMI-8226 leukemia): > 31.7 µM; TGI (RXF 393 renal): > 26.9 µM; TGI (SF-268 CNS): > 56.7 µM; TGI (SK-MEL-2 melanoma): > 30.4 µM; TGI (SK-MEL-28 melanoma): > 100 µM; TGI (SK-MEL-5 melanoma): > 31.7 µM; TGI (SK-OV-3 ovarian): > 52.1 µM; TGI (SN12C renal): > 72.9 µM; TGI (SN12K1 renal): > 34.8 µM; TGI (SNB-19 CNS): > 79.2 µM; TGI (SW-620 colon): > 100 µM; TGI (U251 CNS): > 67.5 µM; TGI (UACC-257 melanoma): 38.5 µM; TGI (UACC-62 melanoma): > 39.2 µM; TGI (UO-31 renal): > 100 µM; TGI (XF 498 CNS): > 61.8 µM

Q: Which results are given for `O=c1[nH]c(=O)n(C2OC(CO)C(O)C2O)cc1F` (stereo unspecified)?
A: GI50 (786-0 renal): 0.0462 µM; TGI (786-0 renal): 21.1 µM; GI50 (A498 renal): 0.0876 µM; TGI (A498 renal): 5.61 µM; TGI (A549 NSCLC): 38.4 µM; GI50 (ACHN renal): 0.0236 µM; TGI (ACHN renal): 21 µM; TGI (BT-549 breast): > 100 µM; GI50 (CAKI-1 renal): 0.0104 µM; TGI (CAKI-1 renal): 18.1 µM; GI50 (CCRF-CEM leukemia): 0.0369 µM; TGI (CCRF-CEM leukemia): > 100 µM; GI50 (COLO 205 colon): 0.0447 µM; TGI (COLO 205 colon): 18.7 µM; TGI (DLD-1 colon): > 100 µM; TGI (DMS 114 small cell lung): > 100 µM; TGI (DMS 273 small cell lung): > 100 µM; TGI (DU-145 prostate): > 100 µM; TGI (EKVX NSCLC): > 93.8 µM; GI50 (HCC-2998 colon): 0.0346 µM; TGI (HCC-2998 colon): 54.2 µM; GI50 (HCT-116 colon): 0.00778 µM; TGI (HCT-116 colon): 7.27 µM; GI50 (HCT-15 colon): 0.0207 µM; TGI (HCT-15 colon): > 72.5 µM; GI50 (HL-60(TB) leukemia): 0.025 µM; TGI (HL-60(TB) leukemia): 26.3 µM; TGI (HOP-18 NSCLC): > 100 µM; TGI (HOP-62 NSCLC): 8.59 µM; GI50 (HOP-92 NSCLC): 24.9 µM; TGI (HOP-92 NSCLC): > 100 µM; GI50 (HS 578T breast): 0.031 µM; TGI (HS 578T breast): > 100 µM; GI50 (HT29 colon): 0.0697 µM; TGI (HT29 colon): > 100 µM; TGI (IGROV1 ovarian): 3.12 µM; GI50 (K-562 leukemia): 0.018 µM; TGI (K-562 leukemia): > 100 µM; GI50 (KM12 colon): 0.0267 µM; TGI (KM12 colon): 51.9 µM; TGI (KM20L2 colon): > 100 µM; GI50 (LOX IMVI melanoma): 0.016 µM; TGI (LOX IMVI melanoma): 7.18 µM; TGI (LXFL 529 NSCLC): > 100 µM; GI50 (M14 melanoma): 0.0819 µM; TGI (M14 melanoma): > 75.8 µM; TGI (M19-MEL melanoma): > 100 µM; TGI (MALME-3M melanoma): 47.5 µM; GI50 (MCF7 breast): 0.00603 µM and < 0.0164 µM; TGI (MCF7 breast): > 56.4 µM; TGI (MDA-MB-231 breast): > 100 µM; GI50 (MDA-MB-435): 0.0445 µM; TGI (MDA-MB-435): > 77.9 µM; TGI (MDA-N): > 70.5 µM; GI50 (MOLT-4 leukemia): 0.0428 µM; TGI (MOLT-4 leukemia): > 100 µM; TGI (NCI-H226 lung): 27.6 µM; TGI (NCI-H23 lung): > 43.9 µM; GI50 (NCI-H460 lung): 0.00463 µM; TGI (NCI-H460 lung): 1.01 µM; GI50 (NCI-H522 lung): 0.349 µM; TGI (NCI-H522 lung): 30.6 µM; TGI (NCI/ADR-RES ovarian): > 100 µM; GI50 (OVCAR-3 ovarian): 0.0231 µM; TGI (OVCAR-3 ovarian): 10.9 µM; TGI (OVCAR-4 ovarian): 17.7 µM; GI50 (OVCAR-5 ovarian): 0.0442 µM; TGI (OVCAR-5 ovarian): 26 µM; TGI (OVCAR-8 ovarian): > 100 µM; TGI (PC-3 prostate): > 100 µM; GI50 (RPMI-8226 leukemia): 0.0742 µM; TGI (RPMI-8226 leukemia): 44.8 µM; GI50 (RXF 393 renal): 0.04 nM; TGI (RXF 393 renal): 2.45 µM; TGI (RXF-631 renal): > 100 µM; GI50 (SF-268 CNS): 0.0491 µM; TGI (SF-268 CNS): > 100 µM; TGI (SF-295 CNS): > 100 µM; TGI (SF-539 CNS): 3.03 µM; TGI (SK-MEL-2 melanoma): > 84.6 µM; GI50 (SK-MEL-28 melanoma): 0.0471 µM; TGI (SK-MEL-28 melanoma): > 100 µM; TGI (SK-MEL-5 melanoma): 38.4 µM; TGI (SK-OV-3 ovarian): > 97.4 µM; TGI (SN12C renal): > 100 µM; TGI (SNB-19 CNS): > 100 µM; TGI (SNB-75 CNS): > 100 µM; TGI (SNB-78 CNS): 60.1 µM; GI50 (SR leukemia): 0.0274 µM; GI50 (SW-620 colon): 0.0314 µM; TGI (SW-620 colon): > 100 µM; TGI (T-47D breast): > 100 µM; TGI (TK-10 renal): > 62.2 µM; GI50 (U251 CNS): 0.0669 µM; TGI (U251 CNS): > 48.7 µM; GI50 (UACC-257 melanoma): 1.33 µM; TGI (UACC-257 melanoma): 53.4 µM; GI50 (UACC-62 melanoma): 0.0515 µM; TGI (UACC-62 melanoma): 7.56 µM; TGI (UO-31 renal): 1.91 µM; TGI (XF 498 CNS): > 100 µM
